Test results: US12139542B2, “Inhibitors of aortic carboxypeptidase-like protein (ACLP)” (TRUSTEES OF BOSTON UNIVERSITY, priority 2014, dated 2024)

Test system: ACLP
Experiment: siRNA knockdown of ACLP in differentiating primary lung fibroblasts (Western blot)
Type: cell-based, mouse
Details: primary lung fibroblasts transfected day 1 post-isolation, 2 nM siRNA, vs NTC siRNA
Protocol: siRNA. Differentiating primary lung fibroblasts were transfected with 2 nM small interfering RNA (siRNA) targeting ACLP (Dharmacon) ([…]) (SEQ ID NO: 5) on either day 1 or day 2 post-isolation. Fully differentiated primary lung myofibroblasts were transfected at passage 2 or 3 with 2 nM siRNA targeting ACLP. Non-targeting control (NTC) siRNA ([…], […], […], […]) (SEQ ID NO: 6) was used as a control in all experiments. Transfections were performed using RNAiMAX (Invitrogen) according to manufacturer's instructions.
Knockdown of ACLP slows and partially reverts the fibroblast to myofibroblast transition. To determine if ACLP was required for fibroblast to myofibroblast differentiation, siRNA was used to knockdown ACLP expression during myofibroblast differentiation. Freshly isolated wildtype primary lung fibroblasts were transfected on day 1 post-isolation with siRNA targeting ACLP (FIG. 2B) (3).

Q: With “GGCUCAAGAUCUACGCAAU (listed as RNA, chemistry not given here) [ACLP siRNA, small interfering RNA targeting mouse ACLP (Dharmacon)]” as the sequence, how does the “reduction in ACLP protein expression” value read?
A: 68%

Q: What about the “reduction of Collagen I levels” value of the same sequence?
A: 5%

Q: What about the “reduction in SMA protein expression” value (statistically significant) of the same sequence?
A: 63%
